Reference: US7939534B2, “Certain chemical entities, compositions, and methods” (Cytokinetics, Inc., priority 2006, dated 2011)

Molecular target: T1, chicken gizzard smooth muscle myosin subfragment-1 chemically crosslinked to either cardiac or skeletal actin (Gallus gallus, UniProt P10587)
T1 construct: chicken gizzard smooth muscle myosin subfragment-1; from tissue; host or cells: chicken gizzard
Assay: Dose dependent smooth muscle myosin ATPase modulation (pyruvate kinase/horseradish peroxidase/pyruvate oxidase-coupled ATPase assay)
Assay type: biochemical
Settings: read-out: IC50 Arithmetic Mean
Experimental: In Vitro Model of Dose Dependent Smooth Muscle Myosin Atpase Modulation
Screening assays were performed using a pyruvate kinase and lactate dehydrogenase-coupled ATPase assay containing the following reagents: Potassium PIPES (50 mM ), MgCl2 (3 mM ), KCl (100 mM ), ATP (0.15 mM ), DTT (1 mM ), BSA (0.1 mg/ml), NADH (0.5 mM ), PEP (1.5 mM ), pyruvate kinase (4 U/ml), lactate dehydrogenase (8 U/ml), and antifoam (50 ppm) (concentrations expressed are final assay concentrations). The pH was adjusted to 6.80 at 22° C. by addition of potassium hydroxide. Lead optimization assays were performed with a more sensitive pyruvate kinase/horseradish peroxidase/pyruvate oxidase-coupled ATPase assay containing the following reagents: Potassium PIPES (12 mM ), MgCl2 (2 mM ), KCl (100 mM ), ATP (0.15 mM ), BSA (0.05 mg/ml), potassium phosphate (2 mM ), amplex red (0.1 mM ), PEP (0.1 mM ), pyruvate kinase (4 U/ml), horseradish peroxidase (0.5 U/ml), pyruvate oxidase (0.5 U/ml), and antifoam (50 ppm) (concentrations expressed are final assay concentrations). The pH was adjusted to 7.00 at 22° C. by addition of potassium hydroxide.
The protein components specific to this assay are chicken gizzard smooth muscle myosin subfragment-1 that has been chemically crosslinked to either cardiac or skeletal actin using an excess of 1-Ethyl-3-[3-dimethylaminopropyl]carbodiimide hydrochloride and N-hydroxysuccinimide. The exact concentration of the crosslinked smooth muscle myosin in the assay is determined empirically, by titration to achieve a desired rate of ATP hydrolysis. The concentration varies between protein preparations due to variations in the fraction of active molecules in each preparation.
Compound dose response assays are performed by first preparing a dilution series of test compound, each with an assay mixture containing potassium PIPES, MgCl2, KCl, ATP, BSA, potassium phosphate, amplex red, PEP, crosslinked smooth muscle actomyosin (subfragment-1), antifoam, and water. The assay is started by adding an equal volume of solution containing potassium Pipes, MgCl2, KCl, BSA, potassium phosphate, pyruvate kinase, horseradish peroxidase, pyruvate oxidase, antifoam, and water. ATP hydrolysis is monitored by measuring the fluorescence of amplex red (excitation at 480 nm, emission at 615 nm). The resulting dose response curve is fit by the 4 parameter equation y=Bottom+((Top−Bottom)/(1+((IC50/X)^Hill))). The IC50 is defined as the concentration at which ATPase activity is midway between the top and bottom of the dose response curve.

IC50	SMILES
0.465 µM	O=C(NCc1cccnc1)c1ccc(N2CC[C@H](CO)C2)nc1NCCc1cccc(F)c1 [Compound 27, (6-[(3S)-3-(hydroxymethyl)pyrrolidinyl]-2-{[2-(3-fluorophenyl)ethyl]amino}(3-pyridyl))-N-(3-pyridylmethyl)carboxamide]
0.329 µM	CNC(=O)CNC(=O)c1ccc(N2CCCC2)nc1NCCc1cccc(F)c1 [Compound 28, 2-[(2-{[2-(3-fluorophenyl)ethyl]amino}-6-pyrrolidinyl(3-pyridyl))carbonylamino]-N-methylacetamide]
0.154 µM	O=C(NCc1cccnc1)c1ccc(N2CC=CC2)nc1NCCc1cccc(F)c1 [Compound 29, (2-{[2-(3-fluorophenyl)ethyl]amino}-6-(3-pyrrolinyl)(3-pyridyl))-N-(3-pyridylmethyl)carboxamide]
28.4 µM	N[C@H]1CCN(c2ccc(C(=O)NCc3cccnc3)c(NCCc3cccc(F)c3)n2)C1 [Compound 30, (6-((3S)-3-aminopyrrolidinyl)-2-{[2-(3-fluorophenyl)ethyl]amino}(3-pyridyl))-N-(3-pyridylmethyl)carboxamide]
67.8 µM	CN(C)C(=O)N[C@@H]1CCN(c2ccc(C(=O)NCc3cccnc3)c(NCCc3cccc(F)c3)n2)C1 [Compound 31, N-[(3R)-1-(6-{[2-(3-fluorophenyl)ethyl]amino}-5-[N-(3-pyridylmethyl)carbamoyl](2-pyridyl))pyrrolidin-3-yl](dimethylamino)carboxamide]
1.17 µM	O=C(NCc1cccnc1)c1ccc(N2CCC2)nc1NCCc1cccc(F)c1 [Compound 32, (6-azetidinyl-2-{[2-(3-fluorophenyl)ethyl]amino}(3-pyridyl))-N-(3-pyridylmethyl)carboxamide]
32.8 µM	O=C(NCc1cccnc1)c1ccc(N2CCCC2)nc1NCCc1ccccn1 [Compound 33, {2-[(2-(2-pyridyl)ethyl)amino]-6-pyrrolidinyl(3-pyridyl)}-N-(3-pyridylmethyl)carboxamide]
14.3 µM	CC1CCN(c2ccc(C(=O)NCc3cccnc3)c(NCCc3ccccn3)n2)CC1 [Compound 34, {6-(4-methylpiperidyl)-2-[(2-(2-pyridyl)ethyl)amino](3-pyridyl)}-N-(3-pyridylmethyl)carboxamide]
1.5 µM	O=C(NCc1cccnc1)c1ccc(C2=NCCO2)nc1NCCc1cccc(F)c1 [Compound 35, (2-{[2-(3-fluorophenyl)ethyl]amino}-6-(1,3-oxazolin-2-yl)(3-pyridyl))-N-(3-pyridylmethyl)carboxamide]
0.327 µM	NCc1ncccc1CNC(=O)c1ccc(N2CC[C@@H](O)C2)nc1NCCc1cccc(F)c1 [Compound 36, (6-((3R)-3-hydroxypyrrolidinyl)-2-{[2-(3-fluorophenyl)ethyl]amino}(3-pyridyl))-N-{[2-(aminomethyl)(3-pyridyl)]methyl}carboxamide]
0.0146 µM	NCc1ncccc1CNC(=O)c1ccc(C2=CCCC2)nc1NCCc1cccc(F)c1 [Compound 37, N-{[2-(aminomethyl)(3-pyridyl)]methyl}(6-cyclopent-1-enyl-2-{[2-(3-fluorophenyl)ethyl]amino}(3-pyridyl))carboxamide]
0.0882 µM	NCc1ncccc1CNC(=O)c1ccc(N2CC[C@H](F)C2)nc1NCCc1cccc(F)c1 [Compound 38, (6-((3S)-3-fluoropyrrolidinyl)-2-{[2-(3-fluorophenyl)ethyl]amino}(3-pyridyl))-N-{[2-(aminomethyl)(3-pyridyl)]methyl}carboxamide]
0.0313 µM	NCc1ncccc1CNC(=O)c1ccc(N2CC[C@@H](F)C2)nc1NCCc1cccc(F)c1 [Compound 39, (6-((3R)-3-fluoropyrrolidinyl)-2-{[2-(3-fluorophenyl)ethyl]amino}(3-pyridyl))-N-{[2-(aminomethyl)(3-pyridyl)]methyl}carboxamide]
0.0656 µM	NCc1ncccc1CNC(=O)c1ccc(N2CCCCC2)nc1NCCc1cccc(F)c1 [Compound 40, N-{[2-(aminomethyl)(3-pyridyl)]methyl}(2-{[2-(3-fluorophenyl)ethyl]amino}-6-piperidyl(3-pyridyl))carboxamide]
0.0297 µM	NCc1ncccc1CNC(=O)c1ccc(N2CCCC2)nc1NCCc1cccc(F)c1 [Compound 41, N-{[2-(aminomethyl)(3-pyridyl)]methyl}(2-{[2-(3-fluorophenyl)ethyl]amino}-6-pyrrolidinyl(3-pyridyl))carboxamide]
0.627 µM	CNC(=O)CNC(=O)c1ccc(C2=CCN(C(=O)OC)CC2)nc1NCCc1cccc(F)c1 [Compound 43, methyl 4-(6-{[2-(3-fluorophenyl)ethyl]amino}-5-{N-[(N-methylcarbamoyl)methyl]carbamoyl}-2-pyridyl)-1,2,5,6-tetrahydropyridinecarboxylate]
4.5 µM	COC(=O)N[C@@H]1CCN(c2ccc(C(=O)NCc3cccnc3)c(NCCc3cccc(F)c3)n2)C1 [Compound 44, N-[(3R)-1-(6-{[2-(3-fluorophenyl)ethyl]amino}-5-[N-(3-pyridylmethyl)carbamoyl](2-pyridyl))pyrrolidin-3-yl]methoxycarboxamide]
13.2 µM	O=C(NCc1cccnc1)c1ccc(N2CCCCC2)nc1NCCc1ccccn1 [Compound 45, {6-piperidyl-2-[(2-(2-pyridyl)ethyl)amino](3-pyridyl)}-N-(3-pyridylmethyl)carboxamide]
35.5 µM	N[C@@H]1CCN(c2ccc(C(=O)NCc3cccnc3)c(NCCc3cccc(F)c3)n2)C1 [Compound 46, (6-((3R)-3-aminopyrrolidinyl)-2-{[2-(3-fluorophenyl)ethyl]amino}(3-pyridyl))-N-(3-pyridylmethyl)carboxamide]
0.687 µM	O=C(NCc1cccnc1)c1ccc(N2CC=CCC2)nc1NCCc1cccc(F)c1 [Compound 47, (2-{[2-(3-fluorophenyl)ethyl]amino}-6-(1,2,5,6-tetrahydropyridyl)(3-pyridyl))-N-(3-pyridylmethyl)carboxamide]
0.234 µM	O=C(NCc1cccnc1)c1cc(Cl)c(N2CCCC2)nc1NCCc1cccc(F)c1 [Compound 48, (5-chloro-2-{[2-(3-fluorophenyl)ethyl]amino}-6-pyrrolidinyl(3-pyridyl))-N-(3-pyridylmethyl)carboxamide]
0.165 µM	N#Cc1cc(C(=O)NCc2cccnc2)c(NCCc2cccc(F)c2)nc1N1CCCC1 [Compound 49, (5-cyano-2-{[2-(3-fluorophenyl)ethyl]amino}-6-pyrrolidinyl(3-pyridyl))-N-(3-pyridylmethyl)carboxamide]
21.2 µM	COC(=O)N1CCN=C1c1ccc(C(=O)NCc2cccnc2)c(NCCc2cccc(F)c2)n1 [Compound 50, methyl 2-(6-{[2-(3-fluorophenyl)ethyl]amino}-5-[N-(3-pyridylmethyl)carbamoyl]-2-pyridyl)-2-imidazolinecarboxylate]
0.435 µM	N#CN1CCN=C1c1ccc(C(=O)NCc2cccnc2)c(NCCc2cccc(F)c2)n1 [Compound 51, (6-(1-cyano(2-imidazolin-2-yl))-2-{[2-(3-fluorophenyl)ethyl]amino}(3-pyridyl))-N-(3-pyridylmethyl)carboxamide]
0.119 µM	NCCCN1C(=O)CC[C@@H]1CNC(=O)c1cc(F)c(N2CCCC2)nc1NCCc1cccc(F)c1 [Compound 52, N-{[(2R)-1-(3-aminopropyl)-5-oxopyrrolidin-2-yl]methyl}(5-fluoro-2-{[2-(3-fluorophenyl)ethyl]amino}-6-pyrrolidinyl(3-pyridyl))carboxamide]
